From US20170231890A1, “Methods And Compositions For Stimulating Collagen Synthesis In Skin Cells” (ELC Management LLC, priority 2016, published 2017)

System: normal human dermal fibroblasts (NHDF) from a donor
Assay: collagen induction assay (Pro-collagen Type I EIA) in aged fibroblasts
Type: cell-based
Details: for % Increase in Collagen Induction: 5 days, vs DMEM control
Method: Tripeptide-32 was tested at various concentrations for its ability to stimulate collagen production in normal human dermal fibroblasts (“NHDF”) from a donor in a collagen induction assay. Tripeptide-32 was tested at 1× (0.2%) 0.5× (0.1%) and 0.2× (0.04%) concentration diluted in DMEM (“Dulbecco's Modified Eagle Medium”) supplemented with 10% Hyclone® bovine calf serum and 1% Cellgro® penicillin-streptomycin solution (“DMEM”). All percentages are by weight of the total composition.
Cell Growth and Maintenance. Aged NHDF were obtained from ZenBio. Fibroblasts were cultured in DMEM 1× (Life Tech) supplemented with 10% bovine calf serum (“BCS”) (Hyclone) and 1% PenStrep (“PS”) solution (Cellgro). Cells were regularly maintained; subcultured as needed.
Plating Cells. Normal human dermal fibroblasts (NHDF, aged) were plated on a 96-well plate in supplemented DMEM (as indicated above). All rows, except for Row A, were seeded with cells (Row A was left blank to allow for background subtraction). Plate was allowed to incubate at standard conditions (37° C., 5% CO2, 95% humidity) overnight.
Preparation & Treatment of Cells. The following treatments were created in full media (1% P/S and 10% BCS supplemented) DMEM: (1) Laminaria digitata extract (0.5%); Acetyl hexapeptide-8 solution (a mixture of 0.05% Acetyl hexapeptide-8, 99.35% water and the remainder preservatives) (10%); and whey protein (0.1%, solid) with the remainder DMEM (the “Mixture”); (2) Mixture+Tripeptide-32: Laminaria digitata extract (0.5%), Acetyl hexpeptide-8 solution (10%), whey protein (0.1%) and Tripeptide-32 (0.2%) in DMEM at 1× (0.2%), 0.5× (0.1%), and 0.2× (0.04%) concentration; (3) Tripeptide-32 alone at 1× (0.2%), 0.5× (0.1%) and 0.2× (0.04%) concentration. Each treatment (200 ul/well) was added to the corresponding well of the 96-well plate. Treated plate was allowed to incubate at standard conditions (37° C., 5% CO2, 95% humidity) for 5 days.
Assessment of Collagen Production. Collagen production was assessed using the Pro-collagen Type I collagen EIA Kit (Takara) as per manufacturer's protocol, exactly as described. Plate was read using the Gemini M2E plate reader and results were compared.
The combination of Tripeptide-32 and a mixture of Acetyl hexapeptide-8, Laminaria digitata extract and whey protein were tested for collagen stimulation in NHDF from a donor. Tripeptide-32 at a concentration of 0.2% was combined with a mixture of Acetyl hexapeptide-8 solution (0.05% Acetyl hexapeptide-8, 99.35% water, remainder preservatives) (10%); 0.5% Laminaria digitata extract solution, and 0.1% whey protein in Supplemented DMEM.
The tests were performed according to the method in Example 1.

Substance: Ser-Thr-Pro-NH2 [Tripeptide-32]
- collagen synthesis (result in words) (0.2× (0.04%)): decreased collagen synthesis
- % Increase in Collagen Induction (0.2× concentration (Tripeptide-32 0.04%)): −15.39%
- collagen synthesis (result in words) (0.5× (0.1%) and 1× (0.2%) concentrations): nearly insignificant increase in collagen synthesis
- % Increase in Collagen Induction (0.5× concentration (Tripeptide-32 0.1%)): +1.17%
- % Increase in Collagen Induction (1.0× concentration (Tripeptide-32 0.2%)): +3.27%
